# Target: T1, HSA (Homo sapiens, UniProt P02768)
# T1 construct: purchased Sigma A-8673
# Experiment: Rates of reaction (kinetics of biotinylation) of library members with HSA
# Type: binding
# Method: The rates of reaction of four members of the library with HSA were determined, and the kinetics describing the biotinylation of HSA by these members of the library is shown in FIG. 2. The curves all show a characteristic early fast phase of reaction followed by a slowing of the reaction at later times. The maximal rate of reaction is determined by chosing the best straight line fit for the early values of the time course.
# Members of the library differ in their structures from that of the thiophenyl ester of biotin in that a pentapeptide with a C- terminus amide is present and the ester function is spatially distinct because its position is on the amino acid side chain of glutamate.
# T1 sequence (P02768 25-609): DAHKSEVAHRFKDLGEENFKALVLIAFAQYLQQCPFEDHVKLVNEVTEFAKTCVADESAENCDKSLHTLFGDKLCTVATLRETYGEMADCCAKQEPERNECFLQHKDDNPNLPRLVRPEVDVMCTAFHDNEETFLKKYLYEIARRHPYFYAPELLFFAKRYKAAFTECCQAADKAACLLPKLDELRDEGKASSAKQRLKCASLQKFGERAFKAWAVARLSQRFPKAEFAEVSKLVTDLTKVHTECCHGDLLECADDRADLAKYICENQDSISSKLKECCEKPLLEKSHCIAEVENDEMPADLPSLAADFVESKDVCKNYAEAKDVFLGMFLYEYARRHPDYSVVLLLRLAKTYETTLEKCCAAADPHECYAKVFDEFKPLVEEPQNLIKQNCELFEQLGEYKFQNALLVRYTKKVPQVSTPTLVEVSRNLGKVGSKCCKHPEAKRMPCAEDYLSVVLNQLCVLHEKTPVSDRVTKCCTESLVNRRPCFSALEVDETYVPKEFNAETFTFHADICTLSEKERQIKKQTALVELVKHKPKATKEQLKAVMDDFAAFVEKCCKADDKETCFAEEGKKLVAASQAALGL
smiles,measurement,setting,value
"O=C1NC2CSC(CCCCC(=O)Sc3ccccc3)C2N1 (centres unmarked) [Thiophenyl Biotin, thiophenyl ester of biotin]",Rate,"maximal rate of biotinylation of HSA, best straight line fit of early time course (FIG. 2)",0.0004-0.002 OD units/min
same,Fold Increase over 80 μM thiophenyl biotin,rate of reaction with HSA relative to thiophenyl ester of biotin,1 fold

# Reference: US6277583A, “Affinity labeling libraries and applications thereof” (Conjuchem, Inc., priority 1996, dated 2001)
